Experiment [1] has as its target EGFR L858R (Homo sapiens (Human), UniProt P00533, L858R). Description: Biochemical EGFR inhibition assay, EGFR L858R. The following applies: Caliper mobility shift; 1.0 mM ATP or ATP Km; read-out: Enz EGFR_L858R IC50.
Experiment [2] addresses EGFR (d746-750) (Homo sapiens (Human), UniProt P00533, DEL746-750). In words: Biochemical EGFR inhibition assay, EGFR (d746-750). The following applies: Caliper mobility shift; 1.0 mM ATP or ATP Km; read-out: Enz EGFR_Exon19-del746-750 IC50.
Experiment [3] concerns the target pEGFR (Tyr1068) in PC-9 cells (Ex19Del) (Homo sapiens (Human), UniProt P00533, DEL746-750). In words: PC-9 pEGFR AlphaLISA assay. To be noted: 4 hours incubation, p-EGFR (Tyr1068) AlphaLISA, read-out: Ext pEGFR_PC-9 Ex19Del IC50. Type of experiment: cell-based. In a few lines: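 Cells seeded in phenol-free DMEM with 10% FBS adhered overnight at 37° C./5% CO2, then were exposed for 4 hours to a 4-fold, 10-point compound dilution series. After lysis, phospho-EGFR was read by AlphaLISA SureFire Ultra, and IC50 was fitted from percent inhibition versus log concentration.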

What is called IC50 is the point on the concentration scale where inhibition reaches its midpoint.

Sequence of EGFR (d746-750) (P00533 other isoform, or with tags, fused parts or gaps del 1-694/del 746-750 limits assumed): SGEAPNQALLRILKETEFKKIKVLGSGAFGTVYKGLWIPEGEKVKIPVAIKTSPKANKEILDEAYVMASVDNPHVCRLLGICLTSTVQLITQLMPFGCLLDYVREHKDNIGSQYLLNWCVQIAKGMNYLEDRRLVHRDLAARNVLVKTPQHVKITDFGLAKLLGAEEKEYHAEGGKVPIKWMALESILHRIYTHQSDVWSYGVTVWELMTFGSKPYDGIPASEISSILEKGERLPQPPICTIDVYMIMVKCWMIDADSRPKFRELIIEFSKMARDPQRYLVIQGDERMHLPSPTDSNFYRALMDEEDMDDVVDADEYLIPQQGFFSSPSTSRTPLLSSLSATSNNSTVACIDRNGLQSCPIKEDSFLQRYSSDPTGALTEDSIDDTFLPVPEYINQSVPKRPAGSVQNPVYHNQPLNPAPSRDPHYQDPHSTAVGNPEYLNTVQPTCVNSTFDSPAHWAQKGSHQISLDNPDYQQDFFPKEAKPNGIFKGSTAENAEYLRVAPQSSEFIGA
Sequence of EGFR L858R (P00533 25-1210 L858R): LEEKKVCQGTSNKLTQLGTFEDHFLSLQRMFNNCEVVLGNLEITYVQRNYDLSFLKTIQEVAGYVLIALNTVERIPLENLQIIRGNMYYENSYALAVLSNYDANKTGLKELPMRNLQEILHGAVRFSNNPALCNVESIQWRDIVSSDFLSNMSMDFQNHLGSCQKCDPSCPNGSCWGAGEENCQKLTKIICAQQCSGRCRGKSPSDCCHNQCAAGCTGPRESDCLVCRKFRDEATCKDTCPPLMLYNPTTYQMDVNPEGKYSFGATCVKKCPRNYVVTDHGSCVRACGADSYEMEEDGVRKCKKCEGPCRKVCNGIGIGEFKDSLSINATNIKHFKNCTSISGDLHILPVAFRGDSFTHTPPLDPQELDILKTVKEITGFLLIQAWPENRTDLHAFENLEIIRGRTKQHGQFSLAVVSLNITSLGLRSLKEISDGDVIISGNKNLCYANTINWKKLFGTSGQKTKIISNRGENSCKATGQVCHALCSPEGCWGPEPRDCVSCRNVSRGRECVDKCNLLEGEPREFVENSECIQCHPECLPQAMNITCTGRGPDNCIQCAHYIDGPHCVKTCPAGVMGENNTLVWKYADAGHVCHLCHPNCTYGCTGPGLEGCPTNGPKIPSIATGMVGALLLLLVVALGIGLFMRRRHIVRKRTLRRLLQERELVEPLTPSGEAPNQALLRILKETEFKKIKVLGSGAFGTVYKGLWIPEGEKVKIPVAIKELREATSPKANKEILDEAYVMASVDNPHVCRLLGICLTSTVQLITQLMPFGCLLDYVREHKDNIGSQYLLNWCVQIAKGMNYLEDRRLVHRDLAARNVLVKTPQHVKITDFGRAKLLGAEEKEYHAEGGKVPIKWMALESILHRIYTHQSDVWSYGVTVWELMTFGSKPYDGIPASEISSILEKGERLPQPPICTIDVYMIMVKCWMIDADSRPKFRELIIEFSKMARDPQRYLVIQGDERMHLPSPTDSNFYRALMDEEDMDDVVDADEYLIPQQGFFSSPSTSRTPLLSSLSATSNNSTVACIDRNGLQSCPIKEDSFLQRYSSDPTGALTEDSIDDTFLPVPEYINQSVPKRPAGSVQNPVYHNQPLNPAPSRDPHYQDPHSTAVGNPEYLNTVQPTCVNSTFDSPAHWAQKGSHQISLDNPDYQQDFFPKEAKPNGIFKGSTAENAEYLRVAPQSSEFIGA
Sequence of pEGFR (Tyr1068) in PC-9 cells (Ex19Del) (P00533 other isoform, or with tags, fused parts or gaps del 746-750): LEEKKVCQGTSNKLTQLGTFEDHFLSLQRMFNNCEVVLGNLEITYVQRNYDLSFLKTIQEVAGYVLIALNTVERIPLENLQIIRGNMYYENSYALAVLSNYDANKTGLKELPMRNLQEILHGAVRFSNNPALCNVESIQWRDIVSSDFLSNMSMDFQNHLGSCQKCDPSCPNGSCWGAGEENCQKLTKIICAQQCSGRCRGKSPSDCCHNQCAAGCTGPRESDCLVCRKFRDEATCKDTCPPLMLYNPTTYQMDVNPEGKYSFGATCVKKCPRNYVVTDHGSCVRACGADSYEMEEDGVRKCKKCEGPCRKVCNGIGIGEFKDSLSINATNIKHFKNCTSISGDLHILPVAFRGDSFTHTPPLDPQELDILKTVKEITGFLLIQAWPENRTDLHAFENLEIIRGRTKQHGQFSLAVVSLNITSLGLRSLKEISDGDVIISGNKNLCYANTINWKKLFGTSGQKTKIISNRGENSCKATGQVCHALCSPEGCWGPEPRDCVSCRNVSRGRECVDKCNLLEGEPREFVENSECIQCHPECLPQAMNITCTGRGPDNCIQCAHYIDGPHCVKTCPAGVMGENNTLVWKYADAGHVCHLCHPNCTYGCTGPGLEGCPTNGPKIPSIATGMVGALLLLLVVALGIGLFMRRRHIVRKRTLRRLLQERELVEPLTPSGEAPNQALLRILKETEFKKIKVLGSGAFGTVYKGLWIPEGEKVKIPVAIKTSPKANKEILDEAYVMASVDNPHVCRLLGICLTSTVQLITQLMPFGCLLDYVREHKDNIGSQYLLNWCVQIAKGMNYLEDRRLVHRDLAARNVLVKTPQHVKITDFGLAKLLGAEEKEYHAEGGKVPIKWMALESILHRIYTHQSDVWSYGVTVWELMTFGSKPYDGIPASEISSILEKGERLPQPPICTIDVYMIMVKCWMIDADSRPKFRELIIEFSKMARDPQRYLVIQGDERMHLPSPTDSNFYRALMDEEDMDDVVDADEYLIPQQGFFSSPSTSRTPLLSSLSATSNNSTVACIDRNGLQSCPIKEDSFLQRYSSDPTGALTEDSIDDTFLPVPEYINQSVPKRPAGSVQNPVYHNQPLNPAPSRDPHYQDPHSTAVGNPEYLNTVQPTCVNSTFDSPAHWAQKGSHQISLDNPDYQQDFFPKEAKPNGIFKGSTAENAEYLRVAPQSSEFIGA

As to `CCOc1cc2ncnc(-c3cn(C)nc3-c3ccccc3)c2cc1NC(=O)[C@@]12COC[C@@H]1C2` [Example 290, (1R,5R)—N-(7-ethoxy-4-(1-methyl-3-phenyl-1H-pyrazol-4-yl)quinazolin-6-yl)-3-oxabicyclo[3.1.0]hexane-1-carboxamide], the IC50 in experiment [1] amounted to 1.3 nM; in experiment [2] it was 0.9 nM; in experiment [3], 1.5 nM.

As for `Cn1cc(-c2cc(F)c3c(-c4cn(C)nc4-c4ccccc4)ncnc3c2)cn1` [Example 439, 5-fluoro-7-(1-methyl-1H-pyrazol-4-yl)-4-(1-methyl-3-phenyl-1H-pyrazol-4-yl)quinazoline], the IC50 in experiment [1] turned out to be 0.7 nM; in experiment [2], 0.4 nM; in experiment [3], 1.7 nM.

As to `COc1cc2ncnc(-c3cn(CC(F)F)nc3-c3ccccc3)c2cc1N1CCOCC1` [Example 168, 4-(4-(1-(2,2-difluoroethyl)-3-phenyl-1H-pyrazol-4-yl)-7-methoxyquinazolin-6-yl)morpholine], the IC50 in experiment [1] was 1.5 nM; in experiment [2], 1 nM; in experiment [3] it was 0.8 nM.

Consider `COc1cc2ncnc(-c3cn(C)nc3-c3ccccc3F)c2nc1NC(=O)[C@]12C[C@H]1CN(C)C2` [Example 374, (1R,5R)—N-(4-(3-(2-fluorophenyl)-1-methyl-1H-pyrazol-4-yl)-7-methoxypyrido[3,2-d]pyrimidin-6-yl)-3-methyl-3-azabicyclo[3.1.0]hexane-1-carboxamide], for which the results for the IC50 in experiment [1], in experiment [2] and in experiment [3] were 4.3 nM, 1.4 nM and 3.6 nM, respectively.

As to `COc1cc2ncnc(-c3cn(C)nc3-c3ccccc3F)c2cc1N1CCOCC1` [Example 159, 4-(4-(3-(2-fluorophenyl)-1-methyl-1H-pyrazol-4-yl)-7-methoxyquinazolin-6-yl)morpholine], the concentration for half-maximal inhibition (IC50) in experiment [1] came to 3 nM; in experiment [2] it was 1.5 nM; in experiment [3] it was 3.8 nM.

As for `COc1cc2ncnc(-c3cn(C)nc3-c3ccccc3)c2cc1OC1CCOC1` (stereo not drawn) [Example 11, 7-methoxy-4-(1-methyl-3-phenyl-1H-pyrazol-4-yl)-6-((tetrahydrofuran-3-yl)oxy)quinazoline], the values for the IC50 in experiment [1], in experiment [2] and in experiment [3] were 2.9 nM, 2.4 nM and 5.1 nM, respectively.

In the case of `Cn1cc(-c2ncnc3cc(O)c(NC(=O)C4(C(F)(F)F)CC4)nc23)c(-c2ccccc2)n1` [Example 464, N-[7-hydroxy-4-(1-methyl-3-phenyl-1H-pyrazol-4-yl)pyrido[3,2-d]pyrimidin-6-yl]-1-(trifluoromethyl)cyclopropane-1-carboxamide], the IC50 is 0.9 nM in experiment [1], 0.3 nM in experiment [2] and 1.4 nM in experiment [3].

As for `COc1cc2ncnc(-c3cn(C)nc3-c3ccccc3)c2cc1NC(=O)c1c(Cl)cccc1Cl` [Example 231, 2,6-dichloro-N-(7-methoxy-4-(1-methyl-3-phenyl-1H-pyrazol-4-yl)quinazolin-6-yl)benzamide], the IC50 in experiment [1] stood at 1.5 nM; in experiment [2] it was 1 nM; in experiment [3], 2.4 nM.

On to `COc1cc2ncnc(-c3cn(C)nc3-c3ccccc3)c2cc1-c1cnc2c(ccn2C)c1` [Example 140, 7-methoxy-6-(1-methyl-1H-pyrrolo[2,3-b]pyridin-5-yl)-4-(1-methyl-3-phenyl-1H-pyrazol-4-yl)quinazoline], for which the IC50 is 4.5 nM in experiment [1], 1.9 nM in experiment [2] and 6.7 nM in experiment [3].

With `CCOc1cc2ncnc(-c3cn(C)nc3-c3ccccc3)c2cc1N1CC2CC(C1)O2` [Example 167, 3-(7-ethoxy-4-(1-methyl-3-phenyl-1H-pyrazol-4-yl)quinazolin-6-yl)-6-oxa-3-azabicyclo[3.1.1]heptane], the IC50 came to 1.9 nM in experiment [1], 1.1 nM in experiment [2] and 1.7 nM in experiment [3].

For the molecule `CCOc1cc2ncnc(-c3cn(C)nc3-c3ccccc3)c2cc1OC1CCNCC1` [Example 8, 7-ethoxy-4-(1-methyl-3-phenyl-1H-pyrazol-4-yl)-6-(piperidin-4-yloxy)quinazoline], the IC50 in experiment [1] worked out at 4.8 nM; in experiment [2], 3.4 nM; in experiment [3], 4.5 nM.

As to `CCn1cc([C@@H](C)Oc2nc3c(-c4cn(C)nc4-c4ccccc4)ncnc3cc2OC)nn1` [Example 35, (R)-6-(1-(1-ethyl-1H-1,2,3-triazol-4-yl)ethoxy)-7-methoxy-4-(1-methyl-3-phenyl-1H-pyrazol-4-yl)pyrido[3,2-d]pyrimidine], the figures for the IC50 in experiment [1], in experiment [2] and in experiment [3] were 2.3 nM, 1.9 nM and 2.7 nM, respectively.

Regarding `CCn1cc(-c2ncnc3cc(OC)c(NC(=O)C45CC(N(C)C)(C4)C5)nc23)c(-c2ccc(F)cc2)n1` [Example 405, 3-(dimethylamino)-N-(4-(1-ethyl-3-(4-fluorophenyl)-1H-pyrazol-4-yl)-7-methoxypyrido[3,2-d]pyrimidin-6-yl)bicyclo[1.1.1]pentane-1-carboxamide], the IC50 turned out to be 2 nM in experiment [1], 0.8 nM in experiment [2] and 1.7 nM in experiment [3].

As to `COc1cc2ncnc(-c3cn(C)nc3-c3ccccc3)c2cc1NC(=O)c1c(F)cccc1F` [Example 331, 2,6-difluoro-N-(7-methoxy-4-(1-methyl-3-phenyl-1H-pyrazol-4-yl)quinazolin-6-yl)benzamide], the IC50 was 1.7 nM in experiment [1], 1 nM in experiment [2] and 1.5 nM in experiment [3].

`COc1cc2ncnc(-c3cn(C)nc3-c3ccccc3)c2cc1NC(=O)c1cncc(F)c1` [Example 327, 5-fluoro-N-(7-methoxy-4-(1-methyl-3-phenyl-1H-pyrazol-4-yl)quinazolin-6-yl)nicotinamide]: the figures for the IC50 in experiment [1], in experiment [2] and in experiment [3] were 10.4 nM, 5.1 nM and 10.4 nM, respectively.

Regarding `CCn1cc(-c2ncnc3cc(OC)c(NC(=O)c4cccnc4)cc23)c(-c2ccccc2)n1` [Example 332, N-(4-(1-ethyl-3-phenyl-1H-pyrazol-4-yl)-7-methoxyquinazolin-6-yl) nicotinamide], the IC50 was determined as 2.3 nM in experiment [1], 1.6 nM in experiment [2] and 2.1 nM in experiment [3].

As for `COc1cc2ncnc(-c3cn(C)nc3-c3ccc(F)cc3)c2nc1NC(=O)C12CC(N(C)C)(C1)C2` [Example 402, 3-(dimethylamino)-N-(4-(3-(4-fluorophenyl)-1-methyl-1H-pyrazol-4-yl)-7-methoxypyrido[3,2-d]pyrimidin-6-yl)bicyclo[1.1.1]pentane-1-carboxamide], the half-maximal inhibitory concentration (IC50) in experiment [1] is 3.1 nM; in experiment [2], 1.3 nM; in experiment [3] it was 3.8 nM.

For `[2H]C([2H])([2H])Oc1cc2ncnc(-c3cn(C([2H])([2H])[2H])nc3-c3ccccc3)c2nc1NC(=O)C1(C(F)(F)F)CC1` [Example 486, N-(7-(methoxy-d3)-4-(1-(methyl-d3)-3-phenyl-1H-pyrazol-4-yl)pyrido[3,2-d]pyrimidin-6-yl)-1-(trifluoromethyl)cyclopropane-1-carboxamide], the figures for the IC50 in experiment [1], in experiment [2] and in experiment [3] were 2.2 nM, 0.7 nM and 1.5 nM, respectively.

As to `COc1cc2ncnc(-c3cn(C)nc3-c3ccccc3)c2nc1OC(C)c1cccnc1F` (stereo not drawn) [Example 30, 6-(1-(2-fluoropyridin-3-yl)ethoxy)-7-methoxy-4-(1-methyl-3-phenyl-1H-pyrazol-4-yl)pyrido[3,2-d]pyrimidine], the IC50 was 1.4 nM in experiment [1], 1 nM in experiment [2] and 1.1 nM in experiment [3].

For the molecule `Cc1nn(C)c(-c2ccccc2)c1-c1ncnc2cc(-c3cnn(C)c3)ccc12` [Example 481, 4-(1,3-dimethyl-5-phenyl-1H-pyrazol-4-yl)-7-(1-methyl-1H-pyrazol-4-yl)quinazoline], the results for the IC50 in experiment [1], in experiment [2] and in experiment [3] were 70.5 nM, 78 nM and 953 nM, respectively.

As to `COc1cc2ncnc(-c3cn(C)nc3-c3ccccc3)c2nc1OC(C)c1cocn1` (stereo not drawn) [Example 28, 4-(1-((7-methoxy-4-(1-methyl-3-phenyl-1H-pyrazol-4-yl)pyrido[3,2-d]pyrimidin-6-yl)oxy)ethyl)oxazole], the IC50 came out at 1.2 nM in experiment [1], 0.9 nM in experiment [2] and 0.7 nM in experiment [3].

Consider `COc1cc2ncnc(-c3cn(C)nc3-c3ccccc3)c2cc1O[C@@H]1CCOC1` [Example 12, (R)-7-methoxy-4-(1-methyl-3-phenyl-1H-pyrazol-4-yl)-6-((tetrahydrofuran-3-yl)oxy)quinazoline], for which the IC50 was 2.8 nM in experiment [1], 1.3 nM in experiment [2] and 5.6 nM in experiment [3].

For `CCN1CCN(C(=O)Oc2cc3c(-c4cn(C)nc4-c4ccccc4)ncnc3cc2OC)[C@@H](C)C1` [Example 75, 7-methoxy-4-(1-methyl-3-phenyl-1H-pyrazol-4-yl)quinazolin-6-yl (S)-4-ethyl-2-methylpiperazine-1-carboxylate], the IC50 in experiment [1] was 3.6 nM; in experiment [2], 2.2 nM; in experiment [3], 3.6 nM.

`CCn1cc(-c2ncnc3cc(OC)c(NC(=O)[C@@]45COC[C@@H]4C5)cc23)c(-c2ccccc2)n1` [Example 288, (1R,5R)—N-(4-(1-ethyl-3-phenyl-1H-pyrazol-4-yl)-7-methoxyquinazolin-6-yl)-3-oxabicyclo[3.1.0]hexane-1-carboxamide]: the IC50 in experiment [1] was 1.9 nM; in experiment [2], 1.2 nM; in experiment [3], 2 nM.

Turning to `COc1cc2ncnc(-c3cn(C)nc3-c3ccccc3)c2cc1NC(=O)c1ccnn1C(F)(F)F` [Example 204, N-(7-methoxy-4-(1-methyl-3-phenyl-1H-pyrazol-4-yl)quinazolin-6-yl)-1-(trifluoromethyl)-1H-pyrazole-5-carboxamide], the results for the IC50 in experiment [1], in experiment [2] and in experiment [3] were 2.1 nM, 1.3 nM and 1.4 nM, respectively.

The values above are taken from US20250236608A1, “EGFR INHIBITORS” (Blueprint Medicines Corporation, priority 2022, published 2025).
